The target in data set [1] is HDAC1 (Homo sapiens, UniProt Q13547). As to the kind of experiment: HTRF enzyme inhibition assay, HDAC1. Particulars: for inhibition at 1 µM: read-out: % enzyme inhibition HDAC; for % enzyme inhibition HDAC: compound at 1 μM, HTRF, method names HDAC1 protein.
In data set [2] the target is T1, GST-tagged MDM2 (Homo sapiens, UniProt Q00987).
T1 construct: purchased Cisbio Co. Ltd
As to the kind of experiment: HTRF enzyme inhibition assay, MDM2. The data set is classed as biochemical. Particulars: compound at 1 μM. The method, then:
The enzymatic assay of test compounds is using the HTRF-based method provided by Cisbio Co. Ltd. In brief, the target compounds to be tested were prepared into samples with a concentration of 1 μM, which was added to GST-tagged MDM2 and HDAC1 proteins, respectively, then biotinylated substrate p53 peptide and HTRF detection reagents were added. The data obtained were processed by the ratio method, and the inhibition rates of MDM2 and HDAC1 were calculated. The detailed experimental procedures are according to the manufacturer’s protocols.

T1 sequence (Q00987 whole entry): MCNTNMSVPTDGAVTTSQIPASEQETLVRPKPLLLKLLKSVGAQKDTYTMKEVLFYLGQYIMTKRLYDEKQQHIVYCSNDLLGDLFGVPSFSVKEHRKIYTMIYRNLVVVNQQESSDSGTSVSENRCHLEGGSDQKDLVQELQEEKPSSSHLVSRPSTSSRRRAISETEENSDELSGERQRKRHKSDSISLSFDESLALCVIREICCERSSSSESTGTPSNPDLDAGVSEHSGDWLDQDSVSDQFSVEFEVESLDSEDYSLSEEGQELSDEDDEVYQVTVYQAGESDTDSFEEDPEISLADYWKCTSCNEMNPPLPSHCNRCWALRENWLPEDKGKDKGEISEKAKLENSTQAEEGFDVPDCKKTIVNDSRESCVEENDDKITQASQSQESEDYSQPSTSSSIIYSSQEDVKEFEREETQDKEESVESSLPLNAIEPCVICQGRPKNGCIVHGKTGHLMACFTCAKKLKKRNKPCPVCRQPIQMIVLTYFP
HDAC1, sequence (Q13547 whole entry): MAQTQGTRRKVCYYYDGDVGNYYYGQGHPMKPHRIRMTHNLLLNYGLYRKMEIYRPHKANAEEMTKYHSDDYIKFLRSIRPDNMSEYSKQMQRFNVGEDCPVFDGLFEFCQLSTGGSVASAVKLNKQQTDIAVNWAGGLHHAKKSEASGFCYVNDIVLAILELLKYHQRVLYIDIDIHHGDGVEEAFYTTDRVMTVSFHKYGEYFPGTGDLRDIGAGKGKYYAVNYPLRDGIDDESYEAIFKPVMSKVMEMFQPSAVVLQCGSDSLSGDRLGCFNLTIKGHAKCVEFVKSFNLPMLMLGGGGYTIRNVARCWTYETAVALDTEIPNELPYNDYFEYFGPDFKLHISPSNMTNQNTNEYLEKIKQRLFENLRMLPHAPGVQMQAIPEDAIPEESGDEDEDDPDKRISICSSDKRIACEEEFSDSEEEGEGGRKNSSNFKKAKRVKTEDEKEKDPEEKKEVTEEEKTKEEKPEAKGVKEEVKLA

The compound `O=C(CCCCC(=O)Nc1ccc(C(=O)Nc2ccc([C@@H]3[C@H]4CSCN4[C@]4(C(=O)Nc5cc(Cl)ccc54)[C@H]3C(=O)c3ccccc3)cc2)cc1)NO` [7v, N^1-(4-((4-((3R,6'S,7'R,7a'S)-6'-benzoyl-6-chloro-2-oxo-1',6',7',7a'-tetrahydro-3'H-spiro[indoline-3,5'-pyrrolo[1,2-c]thiazol]-7'-yl)phenyl)carbamoyl)phenyl)-N^6-hydroxyadipamide] registered a melting point of 175.5 to 176.6 °C. Further, the inhibition at 1 µM in data set [1] was determined as 53%. Besides, at 1 µM the inhibition in data set [2] was 58%.

The compound `Nc1ccccc1NC(=O)CCCCC(=O)Nc1ccc([C@@H]2[C@H]3CSCN3[C@]3(C(=O)Nc4cc(Cl)ccc43)[C@H]2C(=O)c2ccccc2)cc1` [9c, N^1-(2-aminophenyl)-N^6-(4-((3R,6'S,7'R,7a'S)-6'-benzoyl-6-chloro-2-oxo-1',6',7',7a'-tetrahydro-3'H-spiro[indoline-3,5'-pyrrolo[1,2-c]thiazol]-7'-yl)phenyl)adipamide] gave a melting point of 148.9 to 150 °C. Besides, the inhibition at 1 µM in data set [1] amounted to 40%. For the same compound, the inhibition at 1 µM in data set [2] stood at 57%.

Take `Nc1ccccc1NC(=O)CCCCCCCCC(=O)Nc1ccc([C@@H]2[C@H]3CSCN3[C@]3(C(=O)Nc4cc(Cl)ccc43)[C@H]2C(=O)c2ccccc2)cc1` [9e, N^1-(2-aminophenyl)-N^10-(4-((3R,6'S,7'R,7a'S)-6'-benzoyl-6-chloro-2-oxo-1',6',7',7a'-tetrahydro-3'H-spiro[indoline-3,5'-pyrrolo[1,2-c]thiazol]-7'-yl)phenyl)decanediamide]: the melting point lay within 132.4 to 133.9 °C. Further, in data set [1], the inhibition at 1 µM is 47%. The inhibition at 1 µM in data set [2] was 56%.

For the compound “N^1-(4-((3R,6'S,7'R,7a'S)-6-chloro-6'-(4-(dimethylamino)benzoyl)-2-oxo-1',6',7',7a'-tetrahydro-3'H-spiro[indoline-3,5'-pyrrolo[1,2-c]thiazol]-7'-yl)phenyl)-N^6-hydroxyadipamide [7y]”, in data set [1], the “% enzyme inhibition HDAC” value is 71%. Besides, in data set [2], the “% enzyme inhibition MDM2” value was 54%.

`CN1C[C@@H](c2ccc(NC(=O)CCCCCCC(=O)NO)cc2)[C@H](C(=O)c2ccccc2)[C@@]12C(=O)Nc1cc(Cl)ccc12` [13a, N^1-(4-((3R,3'S,4'R)-3'-benzoyl-6-chloro-1'-methyl-2-oxospiro[indoline-3,2'-pyrrolidin]-4'-yl)phenyl)-N^8-hydroxyoctanediamide] displayed a melting point of 126.7 to 127.9 °C. Further, the inhibition at 1 µM in data set [1] is 65%. Moreover, 1 µM produced 52% inhibition in data set [2].

Regarding `O=C(CCCCCCC(=O)Nc1ccc([C@@H]2[C@H]3CSCN3[C@]3(C(=O)Nc4c(Br)cccc43)[C@H]2C(=O)c2ccccc2)cc1)NO` [7i, N^1-(4-((3R,6'S,7'R,7a'S)-6'-benzoyl-7-bromo-2-oxo-1',6',7',7a'-tetrahydro-3'H-spiro[indoline-3,5'-pyrrolo[1,2-c]thiazol]-7'-yl)phenyl)-N^8-hydroxyoctanediamide], the melting point was in the range of 137.5 to 138.9 °C. In data set [1], the inhibition at 1 µM amounted to 67%. Also, the inhibition at 1 µM in data set [2] came to 30%.

Consider `O=C(CCCCCCCCC(=O)Nc1ccc([C@@H]2[C@H]3CSCN3[C@]3(C(=O)Nc4cc(Cl)ccc43)[C@H]2C(=O)c2ccccc2)cc1)NO` [7s, N^1-(4-((3R,6'S,7'R,7a'S)-6'-benzoyl-6-chloro-2-oxo-1',6',7',7a'-tetrahydro-3'H-spiro[indoline-3,5'-pyrrolo[1,2-c]thiazol]-7'-yl)phenyl)-N^10-hydroxydecanediamide], for which the melting point was in the range of 137.7 to 139 °C. Moreover, the inhibition at 1 µM in data set [1] amounted to 68%. In data set [2], this compound had an inhibition at 1 µM of 59%.

For `CN(C)c1ccc(C(=O)[C@H]2[C@H](c3ccc(NC(=O)CCCCCCC(=O)NO)cc3)[C@H]3CSCN3[C@]23C(=O)Nc2ccccc23)cc1` [7m, N^1-(4-((3R,6'S,7'R,7a'S)-6'-(4-(dimethylamino)benzoyl)-2-oxo-1',6',7',7a'-tetrahydro-3'H-spiro[indoline-3,5'-pyrrolo[1,2-c]thiazol]-7'-yl)phenyl)-N^8-hydroxyoctanediamide], the melting point is 148.7 to 150 °C. Further, in data set [1], the inhibition at 1 µM was determined as 68%. Further, 1 µM produced 40% inhibition in data set [2].

The compound `Cc1cccc2c1NC(=O)[C@@]21[C@@H](C(=O)c2ccccc2)[C@H](c2ccc(NC(=O)CCCCCCC(=O)NO)cc2)[C@H]2CSCN21` [7h, N^1-(4-((3R,6'S,7'R,7a'S)-6'-benzoyl-7-methyl-2-oxo-1',6',7',7a'-tetrahydro-3'H-spiro[indoline-3,5'-pyrrolo[1,2-c]thiazol]-7'-yl)phenyl)-N^8-hydroxyoctanediamide] registered a melting point of 142.7 to 143.9 °C. The inhibition at 1 µM in data set [1] worked out at 71%. Further, the inhibition at 1 µM in data set [2] was 23%.

As for `Cc1ccc2c(c1)[C@@]1(C(=O)N2)[C@@H](C(=O)c2ccccc2)[C@H](c2ccc(NC(=O)CCCCCCC(=O)NO)cc2)[C@H]2CSCN21` [7b, N^1-(4-((3R,6'S,7'R,7a'S)-6'-benzoyl-5-methyl-2-oxo-1',6',7',7a'-tetrahydro-3'H-spiro[indoline-3,5'-pyrrolo[1,2-c]thiazol]-7'-yl)phenyl)-N^8-hydroxyoctanediamide], the melting point is 144.2 to 145.6 °C. Further, the inhibition at 1 µM in data set [1] is 71%. The same compound displayed an inhibition at 1 µM in data set [2] of 45%.

In the case of `O=C(CCCCC(=O)Nc1ccc([C@@H]2[C@H]3CSCN3[C@]3(C(=O)Nc4ccccc43)[C@H]2C(=O)c2ccccc2)cc1)NO` [7p, N^1-(4-((3R,6'S,7'R,7a'S)-6'-benzoyl-2-oxo-1',6',7',7a'-tetrahydro-3'H-spiro[indoline-3,5'-pyrrolo[1,2-c]thiazol]-7'-yl)phenyl)-N^6-hydroxyadipamide], the melting point was in the range of 140.3 to 141.7 °C. The inhibition at 1 µM in data set [1] came out at 60%. Also, at 1 µM the inhibition in data set [2] was 44%.

In turn, `O=C(CCC(=O)Nc1ccc([C@@H]2[C@H]3CSCN3[C@]3(C(=O)Nc4ccccc43)[C@H]2C(=O)c2ccccc2)cc1)NO` [7o, N^1-(4-((3R,6'S,7'R,7a'S)-6'-benzoyl-2-oxo-1',6',7',7a'-tetrahydro-3'H-spiro[indoline-3,5'-pyrrolo[1,2-c]thiazol]-7'-yl)phenyl)-N^4-hydroxysuccinamide] yielded a melting point of 145.1 to 146.3 °C. The inhibition at 1 µM in data set [1] is 54%. The same compound gave an inhibition at 1 µM in data set [2] of 43%.

The compound `O=C(CCCCCCC(=O)Nc1ccc([C@@H]2[C@H]3CSCN3[C@]3(C(=O)Nc4ccccc43)[C@H]2C(=O)c2cccc(Br)c2)cc1)NO` [7n, N^1-(4-((3R,6'S,7'R,7a'S)-6'-(3-bromobenzoyl)-2-oxo-1',6',7',7a'-tetrahydro-3'H-spiro[indoline-3,5'-pyrrolo[1,2-c]thiazol]-7'-yl)phenyl)-N^8-hydroxyoctanediamide] gave a melting point of 120.2 to 121.5 °C. Besides, the inhibition at 1 µM in data set [1] was found to be 69%. The compound further returned an inhibition at 1 µM in data set [2] of 43%.

As to `O=C(CCCCCCC(=O)Nc1ccc([C@@H]2[C@H]3CSCN3[C@]3(C(=O)Nc4ccccc43)[C@H]2C(=O)c2ccccc2)cc1)NO` [7a, N^1-(4-((3R,6'S,7'R,7a'S)-6'-benzoyl-2-oxo-1',6',7',7a'-tetrahydro-3'H-spiro[indoline-3,5'-pyrrolo[1,2-c]thiazol]-7'-yl)phenyl)-N^8-hydroxyoctanediamide], the melting point is 144.7 to 146.1 °C. Further, the inhibition at 1 µM in data set [1] was determined as 69%. In data set [2], this compound had an inhibition at 1 µM of 39%.

`O=C(CCCCCCC(=O)Nc1ccc([C@@H]2[C@H]3CSCN3[C@]3(C(=O)Nc4ccc(Cl)cc43)[C@H]2C(=O)c2ccccc2)cc1)NO` [7d, N^1-(4-((3R,6'S,7'R,7a'S)-6'-benzoyl-5-chloro-2-oxo-1',6',7',7a'-tetrahydro-3'H-spiro[indoline-3,5'-pyrrolo[1,2-c]thiazol]-7'-yl)phenyl)-N^8-hydroxyoctanediamide] returned a melting point of 154.6 to 156.2 °C. Besides, in data set [1], the inhibition at 1 µM came to 67%. The same compound registered an inhibition at 1 µM in data set [2] of 49%.

For the compound `Nc1ccccc1NC(=O)CCC(=O)Nc1ccc([C@@H]2[C@H]3CSCN3[C@]3(C(=O)Nc4ccccc43)[C@H]2C(=O)c2ccccc2)cc1` [9a, N^1-(2-aminophenyl)-N^4-(4-((3R,6'S,7'R,7a'S)-6'-benzoyl-2-oxo-1',6',7',7a'-tetrahydro-3'H-spiro[indoline-3,5'-pyrrolo[1,2-c]thiazol]-7'-yl)phenyl)succinamide], the melting point lay within 149.1 to 150.2 °C. In data set [1], the inhibition at 1 µM was 37%. Moreover, at 1 µM the inhibition in data set [2] was 50%.

“N^1-(4-((3R,6'S,7'R,7a'S)-6-chloro-2-oxo-6'-(thiophene-2-carbonyl)-1',6',7',7a'-tetrahydro-3'H-spiro[indoline-3,5'-pyrrolo[1,2-c]thiazol]-7'-yl)phenyl)-N^6-hydroxyadipamide [15c]”: the “% enzyme inhibition HDAC” value in data set [1] is 70%. Besides, in data set [2], the “% enzyme inhibition MDM2” value is reported as 49%.

On to `COc1ccc2c(c1)NC(=O)[C@@]21[C@@H](C(=O)c2ccccc2)[C@H](c2ccc(NC(=O)CCCCCCC(=O)NO)cc2)[C@H]2CSCN21` [7k, N^1-(4-((3R,6'S,7'R,7a'S)-6'-benzoyl-6-methoxy-2-oxo-1',6',7',7a'-tetrahydro-3'H-spiro[indoline-3,5'-pyrrolo[1,2-c]thiazol]-7'-yl)phenyl)-N^8-hydroxyoctanediamide], for which the inhibition at 1 µM in data set [1] was 70%; in data set [2] it was 54%.

For “N^1-(4-((3R,6'S,7'R,7a'S)-6-chloro-6'-(furan-2-carbonyl)-2-oxo-1',6',7',7a'-tetrahydro-3'H-spiro[indoline-3,5'-pyrrolo[1,2-c]thiazol]-7'-yl)phenyl)-N^6-hydroxyadipamide [15b]”, the “% enzyme inhibition HDAC” value in data set [1] came out at 70%. The “% enzyme inhibition MDM2” value in data set [2] turned out to be 48%.

Values taken from PMC9386376, “Discovery of spirooxindole-derived small-molecule compounds as novel HDAC/MDM2 dual inhibitors and investigation of their anticancer activity” (Frontiers in Oncology, 2022).
